We go through 1 compound from article PMC3368874, “Characterization of 4-HNE Modified L-FABP Reveals Alterations in Structural and Functional Dynamics” (PLoS ONE, 2012).

The subject of assay [1] is L-FABP. The settings on record: following ethanol consumption in rats; cited from earlier work.
Assay [2] has as its system L-FABP. An excerpt: All protocols were approved by the Institutional Animal Care and Use Committee (IACUC) at the University of Colorado Anschutz Medical Campus. Male C57Bl/6J mice were fed a modified Lieber-DeCarli Diet (BioServ, Frenchtown, NJ) consisting of 45% fat-derived calories and 15% protein-derived calories with the remaining caloric content derived from either ethanol or maltose-dextrin. Mice were fed for a period of 6 weeks according to previous laboratory studies, [20]. At termination, the liver was harvested for whole tissue and histological evaluation as previously described, [21]. Subcellular fractions were isolated from whole liver tissue using sucrose gradient centrifugation.
200 ug of whole cell homogenates from both control and ethanol mice (n = 6/group) were incubated with 5 ug of mouse monoclonal ubiquitin antibody (Abcam, cat# ab411) for 2 hours at 4°C on a rotator to allow ubiquitin protein to bind to antibody. 100 ul of a 50% Protein G slurry (prepared and stored in 0.02% sodium azide and PBS, pH 7.4) was added to the reaction and incubated at 4°C rotating overnight. Samples were washed 5×5 minutes in PBST (PBS +[…]) and denatured in SDS-PAGE loading buffer at 95°C for 5 minutes. Immunoprecipitated protein was separated via SDS-PAGE and transferred to PVDF, and immunoblotted for L-FABP (Abcam, cat # 7847). Density of ubiquitinated bands were normalized to levels of L-FABP/β-Actin determined by immunoblotting.
Total RNA was isolated from […] of frozen tissue from control and ethanol-fed mice (n = 3) using RNeasy Mini Kits (Qiagen,Valencia, CA).

Another assay concerns FABP1. The settings on record: 4 week ramped ethanol feeding regimen; cited from earlier work.

For `CCO` [ethanol], the “decrease in expression of L-FABP” value in the assay with L-FABP [1] is about 30%. Moreover, the “poly-ubiquitinated L-FABP normalized to total L-FABP” value in the assay on L-FABP [2] (co-immunoprecipitation, ethanol diet 6 weeks, P<0.001, n = 6) is given as “significant increase”. Also, the “decrease in FABP1 mRNA (RT-PCR)” value in the assay on L-FABP [2] (ethanol diet 6 weeks versus control) amounted to 1.6 fold. Moreover, in the assay on L-FABP [2] (ethanol livers, control 1.00±0.084, P<0.05, n = 3), the “relative expression of FABP1” value is given as 0.617±0.069. For the same compound, the “reduction in L-FABP protein (1D Western Blot)” value in the assay on L-FABP [2] (whole cell lysates, ethanol diet 6 weeks versus control, P<0.001, n = 6) is reported as about 80%. Moreover, in the assay on FABP1, the “decrease in the mRNA of FABP1” value was over 50%.
